According to article PMC10957897, “An evolutionary mechanism to assimilate new nutrient sensors into the mTORC1 pathway” (Nature Communications, 2024):
Positions count from the first letter of the chain named.

Key:
[1] = target: T1, Unmet expectations (Unmet; CG11596) (Drosophila melanogaster, UniProt Q9I7X6); assay: competition with [3H]SAM binding to purified protein on anti-FLAG beads; conditions: 5 μM [3H]SAM, pH 7.4, on ice
T1 construct: FLAG-tagged, tag kept; pRK5 vector, expressed in suspension HEK-293T cells
T1 sequence (Q9I7X6 1-456): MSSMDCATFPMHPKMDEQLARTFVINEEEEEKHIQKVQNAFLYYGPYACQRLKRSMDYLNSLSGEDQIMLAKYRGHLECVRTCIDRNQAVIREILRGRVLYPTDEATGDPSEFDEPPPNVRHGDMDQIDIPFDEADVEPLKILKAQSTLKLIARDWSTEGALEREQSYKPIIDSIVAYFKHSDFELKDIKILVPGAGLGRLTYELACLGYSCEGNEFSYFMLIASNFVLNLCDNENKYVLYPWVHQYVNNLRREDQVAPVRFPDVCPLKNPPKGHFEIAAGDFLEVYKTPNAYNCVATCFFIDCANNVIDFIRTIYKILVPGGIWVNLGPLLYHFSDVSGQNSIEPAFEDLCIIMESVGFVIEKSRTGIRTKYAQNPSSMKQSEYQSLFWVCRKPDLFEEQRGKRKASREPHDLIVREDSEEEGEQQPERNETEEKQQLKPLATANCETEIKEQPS

[2] = target: T2, Unmet expectations (Unmet; CG11596) (Drosophila melanogaster, UniProt Q9I7X6, E30A); assay: [3H]SAM binding to purified protein on anti-FLAG beads; conditions: 5 μM [3H]SAM with or without unlabeled SAM, pH 7.4, on ice; labelled compound
T2 construct: FLAG-tagged, tag kept; pRK5 vector, expressed in suspension HEK-293T cells
T2 sequence (Q9I7X6 1-456 E30A): T1 sequence (Q9I7X6 1-456) with E30A

| SMILES | competition with [3H]SAM binding to purified protein on anti-FLAG beads [1] | SAM-binding capacity [2] |
| --- | --- | --- |
| Nc1ncnc2c1ncn2[C@@H]1O[C@H](CSCC[C@H](N)C(=O)O)[C@@H](O)[C@H]1O [SAH] | it readily competes with labeled SAM for binding to Unmet | – |
| C[S+](CC[C@H](N)C(=O)O)C[C@H]1O[C@@H](n2cnc3c(N)ncnc32)[C@H](O)[C@@H]1O (stereo partly drawn) [SAM] | – | The E30A mutant of Unmet does not interact with dGATOR2 but maintains its SAM-binding capacity |
| Nc1ncnc2c1ncn2[C@@H]1O[C@H](C[C@@H](N)CC[C@H](N)C(=O)O)[C@@H](O)[C@H]1O [sinefungin] | also competes with labeled SAM for binding to Unmet | – |
